The subject of series [1] is THP-1 macrophage-like cells. As to the kind of experiment: IL-1beta release (ELISA) from PMA-differentiated THP-1 macrophage-like cells. It is filed as cell-based, human. The note with it: 0.2 to 6 millimolar; activation with 100 ng/mL LPS 24 hours then 10 millimolar ATP 1 hour (FIG. 4). As to the method:
(§1) The human monocyte cell line THP-1 was differentiated into macrophage-like cells with PMA for 72 hours. […] Cells were then activated with 100 nanograms per milliliter LPS for 24 hours followed by an additional hour with 10 millimolar adenosine triphosphate (ATP). IL-1beta release was quantified by enzyme-linked immunosorbent assay (ELISA).
(An ELISA detects its analyte on a solid surface through an enzyme-linked reagent.)

Series [2] deals with Human osteoarthritic chondrocytes. As to the kind of experiment: Real-time RT-PCR of Col2a1 mRNA in human osteoarthritic chondrocytes cultured 20 days. The format is cell-based. The note with it: delta-delta CT against GAPDH, actin, 18S rRNA. As to the method:
The chondrocytes were layered on top of a hyaluronic acid hydrogel ([…]®, Sanofi-Aventis, United States) to promote a three-dimensional culture environment. Following 20 days, hyaluronidase was added to release the cells from the hydrogel, the cells were collected, and total RNA was isolated.
(Quantitative PCR measures a nucleic acid by following its amplification.)

For series [3] the test system is unchanged. As to the kind of experiment: Immunostaining of human osteoarthritic chondrocytes cultured 24 days on hyaluronic acid hydrogel (SOX9, Col2a1, ACAN). It is filed as cell-based. The text has this:
The chondrocytes were layered on top of a hyaluronic acid hydrogel ([…]®, Sanofi-Aventis, United States) to promote a three-dimensional culture environment. Following 24 days, the cells were fixed with paraformaldehyde and immunostained for SOX9, Col2a1, and ACAN.

For series [4] the following is noted: cited from earlier work.
For series [5], the system named is human chondrocyte spheroids. As to the kind of experiment: Morphology of human chondrocyte spheroids in hyaluronic acid hydrogel. The format is cell-based.
The test system of the next series is THP-1 cells. The experiment in a line: Viability of PMA-differentiated THP-1 cells (optical density at 490 nanometers). The format is cell-based, human. As to the method:
as §1
Cell viability was also assessed by optical density at 490 nanometers (FIGS. 5A & 5B).

Where [6] appears, read: high-density monolayers, ethanol vehicle, 0.1, 0.5 and 1 millimolar, 24 days.

Data on one compound can be found in US20240423957A1, “TOPICAL ANTI-INFLAMMATORY AND ANALGESIC COMPOSITIONS AND METHODS OF USE” (INSIGNIA PHARMACEUTICALS, LLC, priority 2023, published 2024).

SMILES strings stand for the structures. Entries after “also recorded” stand apart in the source; their conditions may differ.

Take `CCCCCCCCCC(=O)O` [decanoic acid]: the IL-1beta release entry in series [1] is given as “dose-dependent inhibition of IL-1beta release; also recorded: dose-dependent inhibition of IL-1beta concentrations”. Also, in series [2] (0.5 millimolar), the “increase in Col2a1 mRNA” value is given as 1 fold. Further, in series [2] (1 millimolar), the “increase in Col2a1 mRNA” value is 7 fold. For the same compound, in series [3] (1 millimolar), the “ACAN immunostaining of chondrocyte spheroids” value is “strong ACAN immunostaining”. In addition, in series [3] (1 millimolar, 24 days), the “SOX9 staining of spheroids” value is on record as “stained strongly for SOX9” and the “spheroid development or condensation” value is “enhanced spheroid development or condensation”. Also, in series [3] (high-density monolayers), the “concentration with peak Col2a1 staining” value is reported as 0.5 millimolar. Moreover, in series [3] (setting [6]), the “nuclear staining for SOX9” value is given as “enhanced nuclear staining for SOX9 in a dose-dependent manner”, the “punctate staining for ACAN” value is “dose-dependent punctate staining for ACAN” and the “punctate staining for Col2a1” value is “dose-dependent punctate staining for Col2a1”. In series [3] (low-density monolayers), the “concentration with strongest ACAN staining” value was found to be 1 millimolar. Besides, in series [3] (low-density monolayers, 1 millimolar), the “punctate immunostaining for Col2a1” value is recorded as “strong punctate immunostaining for Col2a1”. For the same compound, in series [4], the pKa result is on record as “about 4.9”. Further, the spheroid morphology result in series [5] (after 4 days of culture (FIGS. 2A & 2B)) is “promoted interconnected networks of spheroids; also recorded: generated interconnected networks that suspended the spheroids”. In series [5] (after 20 days of culture (FIGS. 3A & 3B)), the spheroid morphology result was “large spheroid development or condensation”. In addition, the cell viability entry in the series on THP-1 cells (6 millimolar (FIGS. 5A & 5B)) is “unfavorable effect on viability; also recorded: significant decrease in viability”. In addition, the cell viability result with THP-1 cells (concentrations below 6 millimolar (from 0.19 millimolar), relative to vehicle controls) is listed as “no lower concentration of decanoic acid reduced cell viability”.
